# Test results published in patent US8106197B2, “Aminoheteroaryl compounds as protein kinase inhibitors” (Pfizer Inc., priority 2003, dated 2012).
# Molecular target: T1, HGFR (Homo sapiens, UniProt P08581)
# T1 construct: purchased Upstate 14-526
# Assay: HGFR continuous-coupled spectrophotometric assay
# Type: biochemical
# Conditions: not given
# T1 sequence (P08581 974-1390 limits assumed): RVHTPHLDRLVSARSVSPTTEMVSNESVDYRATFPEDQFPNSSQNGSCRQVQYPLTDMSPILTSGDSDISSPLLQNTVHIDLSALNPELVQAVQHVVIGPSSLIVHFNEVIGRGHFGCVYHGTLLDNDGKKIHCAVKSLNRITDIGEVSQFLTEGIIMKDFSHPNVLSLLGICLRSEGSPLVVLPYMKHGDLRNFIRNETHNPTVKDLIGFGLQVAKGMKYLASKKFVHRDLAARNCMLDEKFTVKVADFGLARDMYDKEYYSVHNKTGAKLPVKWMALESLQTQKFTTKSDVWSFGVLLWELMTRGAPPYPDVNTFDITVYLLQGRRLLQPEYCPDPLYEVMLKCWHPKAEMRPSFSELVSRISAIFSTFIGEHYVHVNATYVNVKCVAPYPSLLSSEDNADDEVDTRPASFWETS
row,Structure (SMILES),% inhibition
1,Nc1ncc(-c2ccc(C(=O)N3CCC(N4CCCC4)CC3)cc2)cc1OCc1noc(-c2ccccc2)n1,% inhibition = 16
2,CCc1nc(COc2cc(-c3ccc(C(=O)N4CCC(N5CCCC5)CC4)cc3)cnc2N)no1,% inhibition = 5
3,Cc1noc(C)c1-c1nc(COc2cc(-c3ccc(C(=O)N4CCC(N5CCCC5)CC4)cc3)cnc2N)no1,% inhibition = 6
4,Nc1ncc(-c2ccc(C(=O)N3CCC(N4CCCC4)CC3)cc2)cc1OCc1nc(-c2ccccc2)n[nH]1,% inhibition = 2
5,COC(=O)Nc1cc(COc2cc(-c3ccc(C(=O)N4CCC(N5CCCC5)CC4)cc3)cnc2N)on1,% inhibition = 18
6,Nc1ncc(-c2ccc(C(=O)N3CCC(N4CCCC4)CC3)cc2)cc1OCc1cc(Br)cc(Br)c1,% inhibition = 45
7,CC(=O)Nc1nc(COc2cc(-c3ccc(C(=O)N4CCC(N5CCCC5)CC4)cc3)cnc2N)cs1,% inhibition = 9
8,CN(C)CCNC(=O)c1cccc(COc2cc(-c3ccc(C(=O)N4CCC(N5CCCC5)CC4)cc3)cnc2N)c1,% inhibition = 20
9,Nc1ncc(-c2ccc(C(=O)N3CCC(N4CCCC4)CC3)cc2)cc1OCc1cn2ccccc2n1,% inhibition = 11
10,Cn1nc(CC2CC2)nc1COc1cc(-c2ccc(C(=O)N3CCC(N4CCCC4)CC3)cc2)cnc1N,% inhibition = 7
11,Cn1nc(-c2ccccc2)nc1COc1cc(-c2ccc(C(=O)N3CCC(N4CCCC4)CC3)cc2)cnc1N,% inhibition = 5
12,Nc1ncc(-c2ccc(C(=O)N3CCC(N4CCCC4)CC3)cc2)cc1OCc1nc2ccccc2[nH]1,% inhibition = 4
13,Nc1ncc(-c2ccc(C(=O)N3CCC(N4CCCC4)CC3)cc2)cc1OCc1cccc(C(=O)NCc2cccnc2)c1,% inhibition = 14
14,Nc1ncc(-c2ccc(C(=O)N3CCC(N4CCCC4)CC3)cc2)cc1OCc1cccc(C(=O)Nc2cccnc2)c1,% inhibition = 10
15,Nc1ncc(-c2ccc(C(=O)N3CCC(N4CCCC4)CC3)cc2)cc1OCc1cccc(C(=O)NC2CCN(Cc3ccccc3)C2)c1 (stereo not shown),% inhibition = 13
16,Nc1ncc(-c2ccc(C(=O)N3CCC(N4CCCC4)CC3)cc2)cc1OCc1cccc(C(=O)Nc2ccc(N3CCCCC3)cc2)c1,% inhibition = 32
17,Nc1ncc(-c2ccc(C(=O)N3CCC(N4CCCC4)CC3)cc2)cc1OCc1nc2cccnc2[nH]1,% inhibition = 17
18,CN(C)c1ccc(NC(=O)c2cccc(COc3cc(-c4ccc(C(=O)N5CCC(N6CCCC6)CC5)cc4)cnc3N)c2)cc1,% inhibition = 23
19,Cc1oc(-c2ccc(F)cc2)nc1COc1cc(-c2ccc(C(=O)N3CCC(N4CCCC4)CC3)cc2)cnc1N,% inhibition = 17
20,Nc1ncc(-c2ccc(C(=O)N3CCC(N4CCCC4)CC3)cc2)cc1OCc1cccnc1,% inhibition = 17
21,Cn1nc(C2CC2)nc1COc1cc(-c2ccc(C(=O)N3CCC(N4CCCC4)CC3)cc2)cnc1N,% inhibition = 5
22,COc1ccc(OC)c(COc2cc(-c3ccc(C(=O)N4CCC(N5CCCC5)CC4)cc3)cnc2N)c1,% inhibition = 19

# Same assay, conditions: Table 3; Ki(μM) or I(%); test concentration not given
row,Structure (SMILES),I(%)
1,"Cc1ccccc1-c1cnc(N)c(OC(C)c2c(Cl)ccc(F)c2Cl)c1 (stereo not shown) [Example I-565, 3-[1-(2,6-Dichloro-3-fluoro-phenyl)-ethoxy]-5-o-tolyl-pyridin-2-ylamine]",25
2,"COC(=O)c1ccc(-c2cnc(N)c(OC(C)c3c(Cl)ccc(F)c3Cl)c2)c(C)c1 (stereo not shown) [Example I-548, 4-{6-Amino-5-[1-(2,6-dichloro-3-fluoro-phenyl)-ethoxy]-Pyndin-3-yl}-3-methyl-benzoic acid methyl ester]",17
3,"CC(=O)c1ccccc1-c1cnc(N)c(OC(C)c2c(Cl)ccc(F)c2Cl)c1 (stereo not shown) [Example I-562, 1-(2-{6-Amino-5-[1-(2,6-dichloro-3-fluoro-phenyl)-ethoxy]-pyridin-3-yl}-phenyl)-ethanone]",8
4,"COc1cccc(OC)c1-c1cnc(N)c(OC(C)c2c(Cl)ccc(F)c2Cl)c1 (stereo not shown) [Example I-558, 3-[1-(2,6-Dichloro-3-fluoro-phenyl)-ethoxy]-5-(2,6-dimethoxy-phenyl)-pyridin-2-ylamine]",2

# Same assay, conditions: Table 5; percent c-MET inhibition at 50 nM
row,Structure (SMILES),inhibition at 0.05 µM [%]
1,COc1ccccc1CC(C)N(C)C(=O)c1ccc(-c2cnc(N)c(OC(C)c3c(Cl)ccc(F)c3Cl)c2)cc1 (stereo not shown),55
2,CC(Oc1cc(-c2ccc(C(=O)NC[C@@H]3CCCC[C@H]3O)cc2)cnc1N)c1c(Cl)ccc(F)c1Cl (stereo partly shown),67
3,CC(Oc1cc(-c2ccc(C(=O)N3CCCC(C(N)=O)C3)cc2)cnc1N)c1c(Cl)ccc(F)c1Cl (stereo not shown),84
4,CCC(CO)NC(=O)c1ccc(-c2cnc(N)c(OC(C)c3c(Cl)ccc(F)c3Cl)c2)cc1 (stereo not shown),73
5,CCC(COC)NC(=O)c1ccc(-c2cnc(N)c(OC(C)c3c(Cl)ccc(F)c3Cl)c2)cc1 (stereo not shown),59
6,CC(Oc1cc(-c2ccc(C(=O)NC(C)C(O)c3ccccc3)cc2)cnc1N)c1c(Cl)ccc(F)c1Cl (stereo not shown),69

# Same assay, conditions: Table 5; percent c-MET inhibition at 50 nM; 0.05 µM
row,Structure (SMILES),% inhibition
1,CC(Oc1cc(-c2ccc(C(=O)N[C@H]3CC[C@H](O)CC3)cc2)cnc1N)c1c(Cl)ccc(F)c1Cl (stereo partly shown) [drawing 1011],% inhibition = 72

# Same assay, conditions: Table 6; percent c-MET inhibition at 1 μM; read-out: % inhibition
row,Structure (SMILES),inhibition at 1 µM [%]
1,Nc1ncc(C(=O)N2CCCC(C(=O)N3CCCC3)C2)cc1OCc1c(Cl)cccc1Cl (stereo not shown),47
2,Nc1ncc(C(=O)N2CCC(COc3cccc4cccnc34)C2)cc1OCc1c(Cl)cccc1Cl (stereo not shown),35
3,Nc1ncc(C(=O)NC2COC3(CCN(Cc4ccncc4)CC3)C2)cc1OCc1c(Cl)cccc1Cl (stereo not shown),20
4,Nc1ncc(C(=O)NCCc2nc3ccccc3s2)cc1OCc1c(Cl)cccc1Cl,26
5,Nc1ncc(C(=O)N2CCCC(O)C2)cc1OCc1c(Cl)cccc1Cl (stereo not shown),33
6,Nc1ncc(C(=O)N2CCCC(F)(F)C2)cc1OCc1c(Cl)cccc1Cl,16
7,Nc1ncc(C(=O)N2CCNC(=O)C2)cc1OCc1c(Cl)cccc1Cl,22
8,N#CC1(c2ccccc2)CCN(C(=O)c2cnc(N)c(OCc3c(Cl)cccc3Cl)c2)CC1,37
9,Nc1ncc(C(=O)NCC2COc3ccccc3O2)cc1OCc1c(Cl)cccc1Cl (stereo not shown),34
10,Nc1ncc(C(=O)NCc2ccc[nH]c2=O)cc1OCc1c(Cl)cccc1Cl,16
11,Nc1ncc(C(=O)NCC(F)(F)F)cc1OCc1c(Cl)cccc1Cl,30
12,COCC1CN(CC(N)=O)CCN(C(=O)c2cnc(N)c(OCc3c(Cl)cccc3Cl)c2)C1 (stereo not shown),23
13,Nc1ncc(C(=O)N[C@@H]2CCC[C@H]2OCc2ccccc2)cc1OCc1c(Cl)cccc1Cl,16
14,Nc1ncc(C(=O)NCc2ccc(C(F)(F)F)nc2)cc1OCc1c(Cl)cccc1Cl,17
15,Nc1ncc(C(=O)N2CCC(N3CCCCC3=O)CC2)cc1OCc1c(Cl)cccc1Cl,26
16,COc1cc(CCNC(=O)c2cnc(N)c(OCc3c(Cl)cccc3Cl)c2)cc(OC)c1O,25
17,CS(=O)(=O)CCN1CCN(C(=O)c2cnc(N)c(OCc3c(Cl)cccc3Cl)c2)CC1,25
18,Nc1ncc(C(=O)NCCc2cccc(O)c2)cc1OCc1c(Cl)cccc1Cl,17
19,CCCCOc1ccc(CNC(=O)c2cnc(N)c(OCc3c(Cl)cccc3Cl)c2)cc1,18
20,CN(CC#N)C(=O)c1cnc(N)c(OCc2c(Cl)cccc2Cl)c1,30
21,Nc1ncc(C(=O)NCc2ccc(F)cc2F)cc1OCc1c(Cl)cccc1Cl,33
22,Nc1ncc(C(=O)NCc2ccc(F)cc2Cl)cc1OCc1c(Cl)cccc1Cl,37
